Source: ChEMBL document CHEMBL1201862, “PubChem BioAssay data set” (2004)
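Protocol summary: plate cells (96-well), add compound at 5 concentrations, incubate 48 h, interpolate endpoints linearly. GI50 is the concentration that inhibits growth by half.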 Active and inactive are the calls of the source. Cut-off read from the data, not from the text of the source: active = GI50 up to about 1.1 µM and inactive = higher.

Tests used:
Assay in all cases: DTP human tumour cell line panel, 48 h
OVCAR-8 = tested on: OVCAR-8
SNB-19 = tested on: SNB-19
UO-31 = tested on: UO-31
SN12C = tested on: SN12C
HT-29 = tested on: HT-29
UACC-62 = tested on: UACC-62
KM12 = tested on: KM12
SK-MEL-5 = tested on: SK-MEL-5
IGROV-1 = tested on: IGROV-1
SK-MEL-2 = tested on: SK-MEL-2
NCI-H522 = tested on: NCI-H522
SR = tested on: SR
RXF 393 = tested on: RXF 393
SF-268 = tested on: SF-268
SK-OV-3 = tested on: SK-OV-3
A498 = tested on: A498
OVCAR-4 = tested on: OVCAR-4

Measured: GI50

COc1ccc2c(C(=O)O)cc3cc(OC)c(OC)cc3c2c1
inactive: OVCAR-8 > 100 µM | SNB-19 > 100 µM | UO-31 > 100 µM | SN12C > 100 µM | HT-29 > 100 µM | UACC-62 > 100 µM | KM12 > 100 µM | SK-MEL-5 43.6 µM | IGROV-1 > 100 µM | SK-MEL-2 > 100 µM | NCI-H522 > 100 µM | SR > 100 µM | RXF 393 > 100 µM | SF-268 > 100 µM | SK-OV-3 > 100 µM

COC(=O)Cc1cc(=O)[nH]c2c1C(=O)CCC2
inactive: OVCAR-8 > 100 µM | SNB-19 > 100 µM | UO-31 > 100 µM | SN12C > 100 µM | HT-29 > 100 µM | KM12 > 100 µM | SK-MEL-5 > 100 µM | IGROV-1 > 100 µM | SK-MEL-2 > 100 µM | NCI-H522 > 100 µM | SR > 100 µM | RXF 393 > 100 µM | SF-268 > 100 µM | SK-OV-3 > 100 µM

COc1ccc(Br)c(CCCCC(=O)O)c1
inactive: OVCAR-8 > 100 µM | SNB-19 > 100 µM | SN12C > 100 µM | A498 > 100 µM | HT-29 > 100 µM | UACC-62 > 100 µM | SK-MEL-5 > 100 µM | IGROV-1 > 100 µM | RXF 393 > 100 µM | OVCAR-4 > 100 µM | SK-OV-3 > 100 µM

NC1=NC(=O)C(CC(=O)Nc2ccc([N+](=O)[O-])cc2[N+](=O)[O-])S1 (configuration not stated)
inactive: OVCAR-8 > 100 µM | SNB-19 > 100 µM | UO-31 > 100 µM | SN12C > 100 µM | HT-29 > 100 µM | UACC-62 > 100 µM | KM12 > 100 µM | SK-MEL-5 > 100 µM | IGROV-1 > 100 µM | SK-MEL-2 > 100 µM | RXF 393 > 100 µM | SF-268 > 100 µM | OVCAR-4 > 100 µM

O=[N+]([O-])c1cc2c(cc1O)[nH]c1cccc([N+](=O)[O-])c12
inactive: OVCAR-8 > 100 µM | SNB-19 > 100 µM | UO-31 > 100 µM | SN12C > 100 µM | HT-29 > 100 µM | KM12 > 100 µM | SK-MEL-5 40.7 µM | SK-MEL-2 > 100 µM | NCI-H522 > 100 µM | SR > 100 µM | SF-268 > 100 µM | OVCAR-4 > 100 µM

O=C(CC1(O)C(=O)Nc2ccccc21)c1ccco1 (configuration not stated)
inactive: OVCAR-8 > 100 µM | SNB-19 > 100 µM | UO-31 > 100 µM | SN12C > 100 µM | A498 > 100 µM | HT-29 > 100 µM | UACC-62 > 100 µM | SK-MEL-5 > 100 µM | IGROV-1 > 100 µM | SK-MEL-2 > 100 µM | NCI-H522 > 100 µM | RXF 393 > 100 µM | SF-268 > 100 µM | OVCAR-4 > 100 µM | SK-OV-3 > 100 µM

CCOC(=O)C/C(=N\c1cc(C)on1)N(CC)CC.[O-][Cl+3]([O-])([O-])O
inactive: OVCAR-8 > 100 µM | SNB-19 > 100 µM | UO-31 > 100 µM | SN12C > 100 µM | A498 > 100 µM | HT-29 > 100 µM | UACC-62 > 100 µM | KM12 > 100 µM | SK-MEL-5 > 100 µM | IGROV-1 > 100 µM | SK-MEL-2 > 100 µM | NCI-H522 > 100 µM | SR > 100 µM | SF-268 > 100 µM | SK-OV-3 > 100 µM

COc1ccc(Cc2c(=O)[nH]nc3ccccc23)cc1
inactive: OVCAR-8 90.6 µM | SNB-19 > 100 µM | UO-31 43.8 µM | SN12C > 100 µM | A498 > 100 µM | HT-29 > 100 µM | UACC-62 > 100 µM | KM12 > 100 µM | SK-MEL-5 35.2 µM | IGROV-1 > 100 µM | SK-MEL-2 > 100 µM | SF-268 > 100 µM | OVCAR-4 > 100 µM | SK-OV-3 > 100 µM

N#Cc1c(NN)nc(NN)c(C#N)c1-c1ccccc1
inactive: OVCAR-8 > 100 µM | SNB-19 > 100 µM | UO-31 > 100 µM | SN12C > 100 µM | A498 > 100 µM | HT-29 > 100 µM | UACC-62 > 100 µM | KM12 > 100 µM | SK-MEL-5 > 100 µM | IGROV-1 > 100 µM | SK-MEL-2 > 100 µM | RXF 393 96.6 µM | SF-268 > 100 µM | OVCAR-4 > 100 µM | SK-OV-3 > 100 µM

O=[N+]([O-])c1ccc(/C=C/c2ccc(/C=C/c3ccc([N+](=O)[O-])cc3[N+](=O)[O-])cc2)c([N+](=O)[O-])c1
inactive: OVCAR-8 > 100 µM | UO-31 > 100 µM | A498 > 100 µM | HT-29 > 100 µM | UACC-62 > 100 µM | KM12 > 100 µM | SK-MEL-5 > 100 µM | IGROV-1 > 100 µM | SK-MEL-2 > 100 µM | RXF 393 > 100 µM | OVCAR-4 > 100 µM | SK-OV-3 > 100 µM

CCn1c(O)c(C(=O)Nc2cccs2)c(=O)n(CC)c1=S
inactive: OVCAR-8 14.2 µM | SNB-19 19.5 µM | SN12C 20 µM | A498 19.5 µM | HT-29 17.6 µM | UACC-62 16 µM | KM12 16.8 µM | SK-MEL-5 18 µM | IGROV-1 20.5 µM | SK-MEL-2 17.3 µM | NCI-H522 18 µM | SR 29.5 µM | SF-268 19.3 µM | OVCAR-4 15.3 µM | SK-OV-3 26.7 µM

Cc1ccccc1SC(/C=C/NNC1=NN=C(c2ccccc2)C(c2ccccc2)N1)c1ccccc1 (configuration not stated)
inactive: OVCAR-8 13.7 µM | SNB-19 50 µM | UO-31 16.9 µM | SN12C 61.2 µM | A498 23.7 µM | HT-29 29.8 µM | UACC-62 29.4 µM | KM12 28.4 µM | SK-MEL-5 26.1 µM | IGROV-1 27.4 µM | SK-MEL-2 16.3 µM | NCI-H522 33.8 µM | RXF 393 11.1 µM | SF-268 24.9 µM | OVCAR-4 2.99 µM | SK-OV-3 22.4 µM

COc1ccc2c(c1)[n+]([O-])c(C(N)=O)c(N)[n+]2[O-]
inactive: OVCAR-8 95.3 µM | SNB-19 > 100 µM | UO-31 > 100 µM | SN12C > 100 µM | A498 > 100 µM | HT-29 61.9 µM | KM12 59.2 µM | SK-MEL-5 40.1 µM | IGROV-1 75.7 µM | SK-MEL-2 > 100 µM | NCI-H522 17.1 µM | SR > 100 µM | OVCAR-4 > 100 µM | SK-OV-3 > 100 µM

c1ccc2cc(-c3cc4ccccc4s3)ccc2c1
inactive: OVCAR-8 > 100 µM | SNB-19 > 100 µM | UO-31 > 100 µM | SN12C > 100 µM | A498 > 100 µM | HT-29 > 100 µM | UACC-62 > 100 µM | KM12 > 100 µM | SK-MEL-5 > 100 µM | IGROV-1 > 100 µM | SK-MEL-2 > 100 µM | NCI-H522 > 100 µM | SR > 100 µM | SF-268 > 100 µM | OVCAR-4 > 100 µM | SK-OV-3 22.1 µM
